From ChEMBL document CHEMBL6127112, “Discovery of Novel Nonpeptidic Proteasome Inhibitors Using Covalent Virtual Screening and Biological Evaluation” (ACS Med Chem Lett, 2024) come the findings set out here.

Active and inactive are the calls of the source. The calls are words filed in the database; no cut-off is given here.

One data set has as its target Cathepsin B (Homo sapiens, UniProt P07858). Description: Inhibition of human Cathepsin B using Ac-RR-AFC as substrate preincubated for 10 to 15 mins followed by substrate addition and measured for 30 to 60 mins by fluorescence based assay.
Data set [1] deals with Angiotensin-converting enzyme 2 (Homo sapiens, UniProt Q9BYF1). Description: Inhibition of human His-tagged ACE2 (18 to 740 residues) using ACE2 fluorogenic substrate incubated for 60 mins by fluorescence based assay.
The target of another data set is Procathepsin L (Homo sapiens, UniProt P07711). The data set can be described thus: Inhibition of Cathepsin L (unknown origin) using AFC based peptide as substrate by fluorometric assay.
For a further data set, the target named is 20S proteasome. Description: (§1) Inhibition of human erythrocyte-derived 20S constitutive proteasome protein using Suc-LLVY-AMC as substrate preincubated for 15 mins followed by substrate addition and measured after 30 mins by multimode plate reader analysis.
Another data set deals with NCI-H929. Description: Antiproliferative activity against human NCI-H929 cells assessed as reduction in cell viability incubated for 72 hrs by CellTiter 96 non-radioactive cell proliferation assay. In kind it is functional, cell-based.
Data set [2] in a line: Cytotoxicity against HEK293T cells assessed as reduction in cell viability incubated for 72 hrs by CellTiter 96 non-radioactive cell proliferation assay. It counts as toxicity, cell-based, HEK-293T. To be noted: human.
In the next data set the target is T1, Caspase-2 (Homo sapiens, UniProt P42575).
T1 sequence (P42575 whole entry): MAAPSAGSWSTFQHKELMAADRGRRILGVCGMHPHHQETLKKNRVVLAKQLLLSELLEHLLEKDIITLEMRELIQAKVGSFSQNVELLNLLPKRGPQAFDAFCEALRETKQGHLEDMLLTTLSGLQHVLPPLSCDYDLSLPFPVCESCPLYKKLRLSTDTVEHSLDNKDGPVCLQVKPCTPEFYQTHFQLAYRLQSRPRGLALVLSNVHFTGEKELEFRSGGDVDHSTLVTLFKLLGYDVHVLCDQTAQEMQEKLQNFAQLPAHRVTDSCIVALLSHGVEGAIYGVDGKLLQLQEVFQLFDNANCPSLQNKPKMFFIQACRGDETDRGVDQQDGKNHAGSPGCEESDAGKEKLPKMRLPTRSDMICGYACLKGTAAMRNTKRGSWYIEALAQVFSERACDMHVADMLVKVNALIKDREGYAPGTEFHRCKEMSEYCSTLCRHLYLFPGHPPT
Description: Inhibition of Caspase-2 (unknown origin) by fluorometric assay.

Data set [3] concerns the target T2, 20S proteasome (Homo sapiens) (UniProt P49721+P20618+P28074+P28062+P28065+P28072+P25786+P25787+P25788+P25789+P28066+P60900+O14818+Q8TAA3+P40306+A5LHX3+P49720+P28070+Q99436). The data set is described as §1. To be noted: time 45.0 min.
For data set [4], the target named is T2, 20S proteasome (Homo sapiens). Description: Inhibition of human erythrocyte-derived 20S constitutive proteasome protein at 100 uM using Suc-LLVY-AMC as substrate preincubated for 15 mins followed by substrate addition and measured after 30 mins by multimode plate reader analysis relative to control. To be noted: time 45.0 min.
Data set [5] shares this target. The data set can be described thus: Inhibition of human 20S immunoproteasome protein at 100 uM using Suc-LLVY-AMC as substrate preincubated for 15 mins followed by substrate addition and measured after 30 mins by multimode plate reader analysis relative to control. It counts as protein-complex assay. The following applies: time 45.0 min.

Angiotensin-converting enzyme 2, sequence (Q9BYF1 whole entry, the tested form may be a part): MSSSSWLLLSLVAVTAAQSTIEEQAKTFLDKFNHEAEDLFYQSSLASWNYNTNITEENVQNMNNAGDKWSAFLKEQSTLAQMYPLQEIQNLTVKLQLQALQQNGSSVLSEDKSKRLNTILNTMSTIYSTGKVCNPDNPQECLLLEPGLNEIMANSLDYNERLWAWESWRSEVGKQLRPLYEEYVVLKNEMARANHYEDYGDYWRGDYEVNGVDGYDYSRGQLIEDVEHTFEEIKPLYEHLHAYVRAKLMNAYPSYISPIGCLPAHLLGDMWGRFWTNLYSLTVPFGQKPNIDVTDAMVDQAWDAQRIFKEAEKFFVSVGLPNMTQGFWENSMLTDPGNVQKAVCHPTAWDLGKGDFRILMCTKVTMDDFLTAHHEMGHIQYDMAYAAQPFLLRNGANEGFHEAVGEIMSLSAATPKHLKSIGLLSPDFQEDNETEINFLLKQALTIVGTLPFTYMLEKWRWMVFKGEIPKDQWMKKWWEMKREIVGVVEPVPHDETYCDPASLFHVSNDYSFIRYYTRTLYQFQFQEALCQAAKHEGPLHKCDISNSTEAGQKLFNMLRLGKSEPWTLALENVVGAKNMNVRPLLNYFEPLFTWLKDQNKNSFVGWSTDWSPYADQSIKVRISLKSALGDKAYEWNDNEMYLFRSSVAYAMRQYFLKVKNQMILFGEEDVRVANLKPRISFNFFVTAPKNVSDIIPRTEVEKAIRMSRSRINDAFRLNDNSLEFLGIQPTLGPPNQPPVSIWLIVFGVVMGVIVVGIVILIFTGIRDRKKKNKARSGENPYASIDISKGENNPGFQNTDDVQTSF
Procathepsin L, sequence (P07711 whole entry): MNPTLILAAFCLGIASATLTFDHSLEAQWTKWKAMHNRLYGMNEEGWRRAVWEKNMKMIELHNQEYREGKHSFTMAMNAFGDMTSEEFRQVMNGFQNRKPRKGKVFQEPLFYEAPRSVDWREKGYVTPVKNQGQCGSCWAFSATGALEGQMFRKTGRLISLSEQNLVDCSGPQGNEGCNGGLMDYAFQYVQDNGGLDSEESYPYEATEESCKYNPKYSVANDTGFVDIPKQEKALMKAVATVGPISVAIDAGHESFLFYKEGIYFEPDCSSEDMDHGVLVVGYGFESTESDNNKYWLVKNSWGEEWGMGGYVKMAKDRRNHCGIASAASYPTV

By IC50 is commonly meant the concentration at which inhibition is half-maximal. A low value points to inhibition by little substance. One may read the CC50 as the concentration giving 50% cytotoxicity. Consider `CCN(CC)C(=O)Cn1cc(C(=O)C(=O)Nc2ccc3c(c2)OCCO3)c2ccccc21`, for which the IC50 on Cathepsin B was above 100 µM; in data set [1], above 100 µM; against Procathepsin L, above 100 µM; against 20S proteasome, 12.4 µM; against Caspase-2 it was above 100 µM. Also, the Activity entry in the data set on NCI-H929 was “Dose-Dependent Effect”. Moreover, the CC50 at 72 h in data set [2] is above 200 µM.
The term inhibition denotes the relative decrease from the control value, in per cent. As to `O=C(Nc1ccccc1-c1ccccc1)C(=O)c1cn(CC(=O)N2CCOCC2)c2ccccc12`, the inhibition entry in data set [3] is “inactive”.
In the case of `COc1ccc(NC(=O)C(=O)c2cn(CC(=O)N3CCOCC3)c3ccccc23)cc1OC`, the inhibition is 50% in data set [4], 50% in [5] and “Dose-Dependent Effect” in [3]. This molecule returned an IC50 against 20S proteasome of 107 µM.
Turning to `CC[C@@H](C)NC(=O)C(=O)c1cn(CC(=O)N2CCOCC2)c2ccccc12`, at 20S proteasome, the IC50 stood at 69.2 µM.
For `O=C(Nc1ccccc1)C(=O)c1cn(CC(=O)N2CCOCC2)c2ccccc12`, in data set [4], the inhibition worked out at 55%.
On to `CC(=O)Nc1ccc(NC(=O)C(=O)c2cn(CC(=O)N3CCOCC3)c3ccccc23)cc1`, for which, in data set [3], the inhibition result is “inactive”.
`CC(=O)c1cccc(NC(=O)C(=O)c2cn(CC(=O)N3CCOCC3)c3ccccc23)c1`: the IC50 on 20S proteasome was determined as 31.3 µM.
With `O=C(NCc1ccccc1)C(=O)c1cn(CC(=O)N2CCOCC2)c2ccccc12`, in [4], the inhibition was found to be 26%.
Consider `O=C(Nc1ccc2c(c1)OCCO2)C(=O)c1cn(Cc2ccc(Cl)cc2)c2ccccc12`, for which the inhibition entry in data set [3] is “inactive”.
Molecule `O=C(Nc1ccc2c(c1)OCCO2)C(=O)c1cn(CC(=O)N2CCOCC2)c2ccccc12` gave an IC50 against 20S proteasome of 40.8 µM.
In the case of `COc1cc(NC(=O)C(=O)c2ccn(Cc3ccccc3)c2)cc(OC)c1`, in [3], the inhibition result is “inactive”.
Still for that read-out and setting: the same measure for `Cc1ccc(NC(=O)C(=O)c2cn(CC(=O)N3CCOCC3)c3ccccc23)c(C)c1`: “inactive”.
Consider `COc1ccc(NC(=O)C(=O)c2cn(CC(=O)N3CCCCC3)c3ccccc23)cc1OC`, for which the half-inhibitory concentration (IC50) is above 100 µM against Cathepsin B; above 100 µM in data set [1]; above 100 µM against Procathepsin L; 18.5 µM against 20S proteasome; above 100 µM against Caspase-2. Further, the Activity entry with NCI-H929 was “Dose-Dependent Effect”. The CC50 at 72 h in [2] was above 200 µM.
